According to ChEMBL document CHEMBL1201862, “PubChem BioAssay data set” (2004):
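Where inhibition never reached the appropriate level, the endpoint shown equals the highest concentration tested. Otherwise, values were interpolated linearly from a five-concentration, 48-hour dose response in 96-well plates. The concentration for 50% growth inhibition is given as GI50.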 The source made the active and inactive calls. Rule as the data show it: active = GI50 up to about 1.1 µM and inactive = higher.

Assays:
Assay in all cases: inhibition of tumour cell growth, NCI panel, 48 h
[1] = tested on: 786-0
[2] = tested on: A498
[3] = tested on: ACHN
[4] = tested on: CAKI-1
[5] = tested on: COLO 205
[6] = tested on: EKVX
[7] = tested on: HCC 2998
[8] = tested on: HCT-15
[9] = tested on: HL-60
[10] = tested on: HOP-62
[11] = tested on: IGROV-1
[12] = tested on: MOLT-4
[13] = tested on: NCI-H23
[14] = tested on: NCI/ADR-RES
[15] = tested on: OVCAR-3
[16] = tested on: SF-268
[17] = tested on: SF-295
[18] = tested on: T47D
[19] = tested on: UO-31
[20] = tested on: MDA-MB-435

Measured: GI50

COC(=O)CSc1cc(Cl)c(C)cc1S(=O)(=O)Nc1n[nH]c(N)n1
inactive: [1] > 10 µM | [2] > 10 µM | [3] > 10 µM | [4] > 10 µM | [5] > 10 µM | [6] > 10 µM | [7] > 10 µM | [9] > 10 µM | [10] > 10 µM | [11] > 10 µM | [12] > 10 µM | [13] > 10 µM | [14] > 10 µM | [15] > 10 µM | [16] > 10 µM | [17] > 10 µM | [18] > 10 µM | [19] > 10 µM
> 10 µM: [8]

N#Cc1c(-c2cccc(Br)c2)cc(-c2ccc(Cl)cc2)nc1N
14.1 µM: [8]
inactive: [1] 20.3 µM | [3] 21.8 µM | [4] 25.6 µM | [5] 13.7 µM | [6] 10.5 µM | [7] 17.3 µM | [9] 31 µM | [10] 23.5 µM | [11] 14 µM | [20] 18.2 µM | [12] 15.8 µM | [13] 25 µM | [14] 22.2 µM | [15] 25.4 µM | [16] 24.8 µM | [17] 16.6 µM | [18] 29 µM | [19] 19 µM

Nc1ccc(-c2nc3ccc(Cc4ccc5nc(-c6ccc(N)cc6)oc5c4)cc3o2)cc1
> 100 µM: [8]
inactive: [1] > 100 µM | [2] > 100 µM | [3] > 100 µM | [4] > 100 µM | [5] > 100 µM | [7] > 100 µM | [20] 82.4 µM | [12] 67 µM | [13] > 100 µM | [14] > 100 µM | [16] > 100 µM | [17] > 100 µM | [19] > 100 µM

O=[N+]([O-])c1ccc(-n2nc3ccc4c(no[n+]4[O-])c3n2)cc1
inactive: [1] > 100 µM | [3] 7.11 µM | [4] > 100 µM | [5] > 100 µM | [6] 24.8 µM | [7] > 100 µM | [9] 7.35 µM | [10] 35.2 µM | [11] > 100 µM | [20] > 100 µM | [12] 74.6 µM | [13] > 100 µM | [14] > 100 µM | [15] > 100 µM | [16] > 100 µM | [17] > 100 µM | [18] > 100 µM | [19] 15.1 µM
> 100 µM: [8]

O=c1c2nc3ccccc3c(=O)n2ncn1-c1ccccc1Cl
> 100 µM: [8]
inactive: [1] > 100 µM | [2] > 100 µM | [3] > 100 µM | [4] > 100 µM | [5] > 100 µM | [6] > 100 µM | [7] > 100 µM | [9] > 100 µM | [10] > 100 µM | [11] > 100 µM | [20] > 100 µM | [13] > 100 µM | [15] > 100 µM | [16] > 100 µM | [17] > 100 µM | [18] > 100 µM | [19] > 100 µM

CN(C)c1ccc(/C=C2\C[N+](C)(C)C/C(=C\c3ccc(N(C)C)cc3)C2=O)cc1
> 100 µM: [8]
inactive: [1] 30.7 µM | [2] > 100 µM | [3] 70.5 µM | [4] > 100 µM | [5] 2.61 µM | [6] 38 µM | [7] 8.18 µM | [9] 2.47 µM | [10] 42.8 µM | [11] 8.57 µM | [20] 12.1 µM | [12] 13.6 µM | [13] 17.7 µM | [15] 5.9 µM | [16] 19.2 µM | [17] 31.6 µM | [18] 16.5 µM | [19] > 100 µM

CCOC1NC(=O)Oc2cc3ccccc3cc21 (configuration not stated)
inactive: [1] > 100 µM | [3] > 100 µM | [5] > 100 µM | [6] > 100 µM | [7] > 100 µM | [9] 31.3 µM | [10] > 100 µM | [11] > 100 µM | [20] > 100 µM | [12] 34.8 µM | [13] > 100 µM | [14] 99.5 µM | [15] 30.2 µM | [16] > 100 µM | [17] > 100 µM | [18] 39.6 µM | [19] > 100 µM
34.4 µM: [8]

CCCCCCCN1C(=O)C(O)(c2ccc(C3(O)C(=O)N(CCCCCCC)c4ccccc43)s2)c2ccccc21 (configuration not stated)
inactive: [1] 1.91 µM | [3] 2.26 µM | [5] 1.63 µM | [7] 1.87 µM | [9] 1.56 µM | [10] 1.77 µM | [11] 2.35 µM | [20] 2.05 µM | [12] 2.03 µM | [16] 2.11 µM | [17] 1.85 µM | [18] 4.39 µM | [19] 1.57 µM
2.12 µM: [8]

C#CC(C)(C)OC(=O)C(=[N+]=[N-])C(C)=O
> 10 µM: [8]
inactive: [1] > 10 µM | [2] > 10 µM | [3] > 10 µM | [6] > 10 µM | [7] > 10 µM | [9] > 10 µM | [10] > 10 µM | [11] > 10 µM | [20] > 10 µM | [12] > 10 µM | [13] > 10 µM | [15] > 10 µM | [16] > 10 µM | [17] > 10 µM | [18] > 10 µM | [19] > 10 µM

COc1ccc(C(=O)/C=C/c2ccc(OCCCCCCCCCCOc3ccc(/C=C/C(=O)c4ccc(OC)c(OC)c4)cc3)cc2)c(OC)c1
inactive: [1] > 100 µM | [3] > 100 µM | [4] > 100 µM | [5] > 100 µM | [6] > 100 µM | [7] > 100 µM | [9] > 100 µM | [10] > 100 µM | [11] > 100 µM | [20] > 100 µM | [12] > 100 µM | [14] > 100 µM | [16] > 100 µM | [17] > 100 µM | [18] > 100 µM | [19] > 100 µM
> 100 µM: [8]

COc1ccc(-c2c(N)n(-c3nc4ccccc4s3)c(=O)c3cc([N+](=O)[O-])ccc23)cc1
41.8 µM: [8]
inactive: [1] 4.29 µM | [2] 74 µM | [3] 22 µM | [4] 21.3 µM | [6] 14 µM | [9] 99.8 µM | [10] 14 µM | [20] 19 µM | [12] 3.18 µM | [13] 13.8 µM | [14] 17 µM | [15] 17 µM | [16] 17.2 µM | [17] 22.3 µM | [19] 16.3 µM

O=C(c1ccc(Cl)cc1)c1ccc(OCC(=O)N2CCN(c3ccccc3)CC2)cc1
inactive: [1] > 100 µM | [2] 32.1 µM | [3] > 100 µM | [4] > 100 µM | [5] > 100 µM | [6] > 100 µM | [7] > 100 µM | [9] > 100 µM | [10] > 100 µM | [11] > 100 µM | [12] 62.7 µM | [13] 53.7 µM | [15] > 100 µM | [16] > 100 µM | [17] > 100 µM | [19] > 100 µM
> 100 µM: [8]
